In publication PMC8958504 (Journal of Medicinal Chemistry, 2022):
Several values for one entry are separate records, joined by “and”; a condition that tells them apart may be missing. Identical values can stand only once.

Tests used:
hMAO-A = target: T1, hMAO-A (Homo sapiens, UniProt P21397); assay: biochemical; settings: for IC50: read-out: hMAO-A (IC50), recombinant hMAO-A, p-tyramine substrate
T1 sequence (P21397 1-527): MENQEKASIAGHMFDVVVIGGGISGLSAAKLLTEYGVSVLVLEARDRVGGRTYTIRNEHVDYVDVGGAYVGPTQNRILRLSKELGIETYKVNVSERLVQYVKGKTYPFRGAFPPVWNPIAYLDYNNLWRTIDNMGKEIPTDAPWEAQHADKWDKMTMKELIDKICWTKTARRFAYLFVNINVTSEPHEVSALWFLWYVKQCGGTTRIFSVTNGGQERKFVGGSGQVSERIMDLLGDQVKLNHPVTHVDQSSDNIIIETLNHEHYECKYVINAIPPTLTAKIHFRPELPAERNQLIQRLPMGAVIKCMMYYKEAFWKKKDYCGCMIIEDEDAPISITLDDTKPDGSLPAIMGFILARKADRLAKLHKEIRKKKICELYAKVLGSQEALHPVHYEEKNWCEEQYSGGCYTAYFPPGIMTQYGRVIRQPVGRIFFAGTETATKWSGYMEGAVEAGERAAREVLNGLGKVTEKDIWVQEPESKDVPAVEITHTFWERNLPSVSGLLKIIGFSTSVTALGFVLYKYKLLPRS
Protocol: (§1) The hMAO-A/B inhibition of all compounds was determined using the Amplex Red MAO assay kit.
(§2) Assays were performed following the general procedure previously described.[98] […] The specific fluorescence emission was calculated after subtracting the background activity, which was determined from wells containing all components except the hMAO isoforms, which were replaced with PBS.

hMAO-B = target: T2, hMAO-B (Homo sapiens, UniProt P27338); assay: biochemical; settings: for IC50: read-out: hMAO-B (IC50), recombinant hMAO-B, p-tyramine substrate; for inhibition at 50 µM: read-out: hMAO-B percentage of inhibition (in brackets)
T2 sequence (P27338 1-520): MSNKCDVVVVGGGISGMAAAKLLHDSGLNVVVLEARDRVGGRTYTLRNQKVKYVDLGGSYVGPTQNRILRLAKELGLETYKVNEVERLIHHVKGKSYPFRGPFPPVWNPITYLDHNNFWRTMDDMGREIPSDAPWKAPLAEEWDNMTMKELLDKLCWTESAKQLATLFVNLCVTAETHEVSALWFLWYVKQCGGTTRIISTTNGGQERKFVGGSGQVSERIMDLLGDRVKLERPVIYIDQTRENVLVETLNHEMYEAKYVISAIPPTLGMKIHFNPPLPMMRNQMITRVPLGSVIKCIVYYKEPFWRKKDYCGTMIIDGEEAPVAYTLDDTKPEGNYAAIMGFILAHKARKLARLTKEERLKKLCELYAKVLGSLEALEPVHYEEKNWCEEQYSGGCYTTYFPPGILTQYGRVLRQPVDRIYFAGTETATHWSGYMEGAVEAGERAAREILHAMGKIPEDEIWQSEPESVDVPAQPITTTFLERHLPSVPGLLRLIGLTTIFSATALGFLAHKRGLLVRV
Protocol: as §1, §2

[1] = test system: NRF2-ARE signaling pathway; assay: cells; type: cell-based; settings: for NRF2 (CD, μM): concentration required to double luciferase activity, AREc32 cells, 24 h; for EC (2-fold induction): Arec32, 24 h, read-out: NRF2 (CD, μM), concentration required to double luciferase activity, AREc32 cells, 24 h
Protocol: AREc32 cells were plated in 96-well white plates (2 × 10^4 cells/well). […]. The AREc32 cells constitutively express the plasmid pGL-8xARE that implements eight copies of the EpRE sequences, followed by the luciferase reporter gene. Therefore, NRF2 induction is related to the activation of EpRE sequences, expressing luciferase at the same extent as EpRE sequences are activated. The Luciferase Assay System (Promega E1500) was used according to the provider’s protocol, and luminescence was quantified in an Orion II microplate luminometer (Berthold, Germany). Fold induction of luciferase activity was normalized to basal conditions. Data are expressed as CD values, expressing the concentration required to double the luciferase activity. CD values were calculated from dose–response curves generated from the fold induction of control conditions versus inducer concentration and fitted by nonlinear regression and data interpolated to twofold induction concentration.[68]

[2] = Oxygen radical absorbance capacity (ORAC-FL) assay; settings: trolox = 1.0
Protocol: 2,2′-Azobis-(amidinopropane) dihydrochloride (AAPH), trolox, and fluorescein (FL) were purchased from Sigma-Aldrich. The reaction was carried out in a 75 mM phosphate buffer (pH 7.4), and the final reaction mixture was 200 μL. […] Antioxidant curves (fluorescence vs time) were first normalized to the curve of the blank corresponding to the same assay, and the area under the curve (AUC) of fluorescence decay was calculated. The net AUC corresponding to a sample was calculated by subtracting the AUC corresponding to the blank. Regression equations between the net AUC and antioxidant concentration were calculated for all the samples.

QR2 = target: T3, QR2 (Mesocricetus auratus, UniProt A0ABM2YAB8); assay: biochemical; settings: for inhibition at 10 µM: read-out: QR2 percentage of inhibition (in brackets)
T3 sequence (A0ABM2YAB8 1-231): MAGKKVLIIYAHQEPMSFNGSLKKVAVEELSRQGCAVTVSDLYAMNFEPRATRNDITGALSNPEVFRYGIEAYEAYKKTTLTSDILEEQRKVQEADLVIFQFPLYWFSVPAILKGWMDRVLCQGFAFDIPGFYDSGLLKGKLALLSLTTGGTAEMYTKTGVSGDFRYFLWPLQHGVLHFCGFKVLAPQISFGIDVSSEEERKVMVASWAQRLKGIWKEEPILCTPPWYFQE
Protocol: The QR2 experiments were performed in membrane homogenates of hamster brains (https://www.eurofins.fr, catalog ref. 0088). […] First, radioligand displacement was measured at a fixed compound concentration (10 μM) in each receptor.

in vitro = in vitro ADME; settings: for Papp at 240 min, 100 μg mL^–1: PAMPA, pH 7.4, class from PAMPA-BBB Pe, read-out: CNS-permeability prediction; for PAMPA-BBB (Pe, 10^–6 cm s^–1): porcine brain lipid, PBS/EtOH (70:30), 240 min, 25 °C
adult mice NSCs = assay: Neurogenic studies in SGZ-derived neurospheres; type: cell-based, mouse; settings: 10 μM
Protocol: Adult mice NSCs were isolated from SGZ of the dentate gyrus of the hippocampus and grown as free-floating neurospheres (NS).[72],[78] The neurogenic potential of each compound was determined using fluorescence confocal microscopy by quantifying the expression of two well-known neuronal markers: human β-III-tubulin (TuJ-1 clone) and microtubule-associated protein 2 (MAP-2). TuJ-1 is expressed in immature neurons, whereas the expression of MAP-2 indicates a consolidated mature neuronal stage.[79] Given that neurogenesis involves not only the proliferation of NSC but also the migration of newly generated cells, the greatest migration distance promoted by each compound was also measured (Figure 8).
Adult male C57BL/6 mice (3 months old) were used in order to determine neurogenesis activity. […] DAPI staining was used as a nuclear marker. Fluorescent representative images were acquired with a Nikon fluorescence microscope 90i coupled to a digital camera Qi. The microscope configuration was adjusted to produce the optimum signal-to-noise ratio. […] Quantification was undertaken using the image analySIS software (Soft Imaging System Corp., Münster, Germany) and normalized to total nuclei (DAPI-stained). The intensity of immunostaining of neurites from TuJ1-labeled cells and the number of MAP-2-positive cells were estimated from nine neurospheres per condition over three independent experiments. The outgrowth of the neurosphere cells was examined under a phase-contrast microscope and the farthest distance of cell migration was calculated from the edge of the sphere. At least 10 plated neurospheres per treatment were analyzed.

Experimental pKa = type: physicochemical
Protocol: Introduction of the propargyl group in derivatives 2 was achieved by alkylation of the NH group of the oxadiazolone ring with propargyl bromide in basic media (K2CO3) and acetone. […] However, alkylation of the 3-hydroxylated derivative 3l was carried out overnight at room temperature (rt) in order to avoid possible secondary reactions through the phenolic group (experimental pKa for NH-oxadiazolone, 7.04 ± 0.02; for phenol 8.72 ± 0.02, Supporting Information 1, Table S1 and Figure S11).

[3] = test system: rat primary cortical neurons; assay: Neuroprotection against OA-induced toxicity in rat primary cortical neuronal cultures (MTT); settings: for neuroprotection against OA-induced toxicity: compound 1 μM, OA 10 nM

Structure (SMILES) | IC50 (hMAO-A) [µM] | IC50 (hMAO-B) [µM] | NRF2 (CD, μM) [1] [µM] | ORAC (trolox equiv) [2] [trolox equiv] | IC50 (QR2) [µM] | inhibition at 10 µM (QR2) [%] | Papp at 240 min, 100 μg mL^–1 (in vitro) [×10⁻⁶ cm/s] | PAMPA-BBB (Pe, 10^–6 cm s^–1) (in vitro) | TuJ-1 and MAP-2 marked cells (adult mice NSCs) | cell migration distance (adult mice NSCs) | inhibition at 50 µM (hMAO-A; read-out: hMAO-A percentage of inhibition (in brackets)) [%] | inhibition at 50 µM (hMAO-B) [%] | EC (2-fold induction) [1] [µM] | pKa (Experimental pKa; experimental pKa for NH-oxadiazolone) | pKa (Experimental pKa; experimental pKa for phenol) | neuroprotection against OA-induced toxicity [3] | viability at 1 µM ([3]; Rattus norvegicus, Primary cortical neuron, read-out: cell viability) [%]
O=c1[nH]nc(/C=C/c2cccc([N+](=O)[O-])c2)o1 [2c, 5-[(E)-2-(3-Nitrophenyl)ethenyl]-1,3,4-oxadiazol-2(3H)-one] | > 50 | 1.06 ± 0.22 | 8.42 ± 0.82 | <0.1 | ~10 | 56 | > 4 | 4.7 ± 0.2 10^–6 cm s^–1 | clearly increased | extended |  |  |  |  |  |  | 
COc1cccc(/C=C/c2n[nH]c(=O)o2)c1 [2d, 5-[(E)-2-(3-Methoxyphenyl)ethenyl]-1,3,4-oxadiazol-2(3H)-one] | > 50 | > 50 |  | <0.1 | ~10 | 76 | > 4 | 4.6 ± 0.2 10^–6 cm s^–1 | clearly increased | extended | 24 | 33 | > 60 |  |  |  | 
O=c1[nH]nc(/C=C/c2cccc(O)c2)o1 [3l, 5-[(E)-2-(3-Hydroxyphenyl)ethenyl]-1,3,4-oxadiazol-2(3H)-one] | > 50 | > 50 |  | 3.8 ± 0.1 |  |  | < 2 | ≤ 0.5 10^–6 cm s^–1 | clearly increased | extended |  |  | > 60 | 7.04 ± 0.02 | 8.72 ± 0.02 |  | 
O=c1[nH]nc(/C=C/c2ccc(O)cc2)o1 [3m, 5-[(E)-2-(4-Hydroxyphenyl)ethenyl]-1,3,4-oxadiazol-2(3H)-one] | 41.5 ± 3.4 | 35.7 ± 3 |  | 3.2 ± 0.1 |  |  | < 2 | ≤ 0.7 10^–6 cm s^–1 |  |  |  |  |  |  |  | not able to significantly reduce neuronal death | 
C#CCn1nc(/C=C/c2cccc(OC)c2)oc1=O [4d, 5-[(E)-2-(3-Methoxyphenyl)ethenyl]-3-(prop-2-yn-1-yl)-1,3,4-oxadiazol-2(3H)-one] | > 50 | 0.64 ± 0.06 | 7.44 ± 0.34 | 0.3 ± 0.06 | 0.4 ± 0.03 |  | > 4 | 7.5 ± 0.3 10^–6 cm s^–1 | clearly increased | extended |  |  |  |  |  | slightly higher neuroprotection profile than resveratrol | 86
C#CCn1nc(/C=C/c2cccc(O)c2)oc1=O [5l, 5-[(E)-2-(3-Hydroxyphenyl)ethenyl]-3-(prop-2-yn-1-yl)-1,3,4-oxadiazol-2(3H)-one] | > 50 | 3.53 ± 0.15 | 8.05 ± 1.41 | 2.7 ± 0.2 | 2.5 ± 0.12 |  | > 4 | 4.7 10^–6 cm s^–1 and 4.7 ± 0.2 10^–6 cm s^–1 |  |  |  |  |  |  |  |  | 
C#CCNC(=O)/C=C/c1ccc(O)c(O)c1 [6o, (2E)-3-(3,4-Dihydroxyphenyl)-N-(prop-2-yn-1-yl)prop-2-enamide] | 47 ± 0.9 | > 50 | 19.2 ± 3.7 | 1.9 ± 0.1 |  |  | < 2 | ≤ 0.4 10^–6 cm s^–1 |  |  |  | 48 |  |  |  | slightly higher neuroprotection profile than resveratrol | 
C#CCNC/C=C/c1ccc(O)c(OC)c1 [8n, 2-Methoxy-4-{(1E)-3-[(prop-2-yn-1-yl)amino]prop-1-en-1-yl}phenol] | 30.3 ± 2.5 | > 50 | 22.3 ± 2.9 | 2.1 ± 0.2 | 0.2 ± 0.04 |  | > 4 | 8.7 10^–6 cm s^–1 and 8.7 ± 0.6 10^–6 cm s^–1 |  |  |  | 45 |  |  |  |  | 
